Where two headings read alike, the source gives them in different places.
Assays:
[1] = Partition in water/octanol (14C-biotin, scintillation counting); format: physicochemical
Method: ^14 C-biotin (53000 dpm) was used admixed with cool biotin (0.25 mmol) in 5 ml of twice distilled water, in the presence and in the absence of ethanolamine (3 μl), then adding 5 ml of octanol and stirring (1 minute by means of a stirrer VORTEX). After separation of the phases the radioactivity was measured by scintillation (Beckman counter) in 1 ml of sample. The amount of ^14 C-biotin transferred into the octanolic phase was 14443 dpm in the absence of ethanolamine and 82 dpm in the presence of ethanolamine.
This confirms the increase in solubility in the aqueous phase, which is a consequence of the salification.

glucokinase = conditions: recent studies; cited from earlier work
diabetes = conditions: cited from earlier work
[2] = tested on: seborrheal dermatitis of the newborn; conditions: cited from earlier work
insulin = conditions: recent studies; cited from earlier work
vitamin H deficiency = conditions: cited from earlier work
[3] = tested on: carboxylase enzymes deficiency; conditions: cited from earlier work
[4] = cited from earlier work
[5] = tested on: peripheral neuropathies having diabetic origin; conditions: human beings; cited from earlier work
Water solubility = format: physicochemical; conditions: salts of biotin with an aminoalcohol
[6] = Solubility in cold ethanol; format: physicochemical
[7] = water/octanol, average of 3 tests

O=C(O)CCCC[C@@H]1SC[C@@H]2NC(=O)N[C@@H]21 [Biotin, biotin]
H2O (dpm) ([1]; pH 4, average of 3 tests): 40769 dpm | H2O/octanol ([1]; pH 4, average of 3 tests): 2.9 | octanol (dpm) ([1]; pH 4, average of 3 tests): 13991 dpm | H2O (dpm) [1, 7]: 40940 dpm | H2O/octanol [1, 7]: 2.8 | octanol (dpm) [1, 7]: 14443 dpm | activation of glucokinase (glucokinase): able to activate | blood glucose level (diabetes; insulin-dependent diabetics): lowers the blood glucose level | glucose tolerance (diabetes; insulin-independent diabetes): increase glucose tolerance | post-prandial glucose level (diabetes; insulin-independent diabetes): reduce the post-prandial glucose level | resistance to insulin (diabetes; insulin-independent diabetes): lower resistance to insulin | effect in seborrheal dermatitis in the newborn [2]: particularly effective | activation of insulin (insulin): able to activate | egg-white injury (vitamin H deficiency; Sidenstricker and co-workers, 1942): can be defeated | secondary effects of vitamin deficiency (vitamin H deficiency; following administration of biotin for a certain time): disappeared | effect in diseases coming from a deficiency in multiple carboxylase enzymes ([3]; multiple carboxylase enzymes): effective | effect in diseases caused by single carboxylase enzymes insufficiency ([3]; single carboxylase enzymes (propionyl-CoA, pyruvate, β-methyl-crotonyl carboxylase)): uneffective | water solubility ([4]; biotin as such): 22 mg/100 ml | water solubility (in words) ([4]; prior art): poor water solubility | treatment and prevention of diabetic peripheral neuropathies [5]: advantageously utilized

O=C(O)CCCC[C@@H]1SC[C@@H]2NC(=O)N[C@@H]21 [Ethanolamine biotinate, ethanolamine biotinate]
H2O (dpm) ([1]; pH 4, average of 3 tests): 32148 dpm | H2O/octanol ([1]; pH 4, average of 3 tests): 2.6 | octanol (dpm) ([1]; pH 4, average of 3 tests): 12300 dpm | H2O (dpm) [1, 7]: 36664 dpm | H2O/octanol [1, 7]: 447.1 | octanol (dpm) [1, 7]: 82 dpm | water solubility (in words) (Water solubility): completely water soluble | solubility in cold ethanol (in words) [6]: rather soluble in cold ethanol

O=C(O)CCCC[C@@H]1SC[C@@H]2NC(=O)N[C@@H]21 [^14 C-biotin]
change of amount of 14C-biotin transferred into the octanolic phase ([1]; aqueous phase brought to pH 4, in the absence of ethanolamine): always remains the same | increase of amount of 14C-biotin transferred into the octanolic phase ([1]; aqueous phase brought to pH 4, in the presence of ethanolamine): 170 times | amount of 14C-biotin transferred into the octanolic phase ([1]; in the absence of ethanolamine): 14443 dpm | amount of 14C-biotin transferred into the octanolic phase ([1]; in the presence of ethanolamine (3 μl)): 82 dpm
